Patent US6174907A, “Benzimidazole compounds containing 1,2,4-triazole ring, and compositions and methods of use containing the same” (Fuji Photo Film Co., Ltd., priority 1995, dated 2001)
Read-outs that look alike come from different tables or passages of the source.

Legend:
[1] = test system: mouse peritoneal macrophages; test: Cytotoxicity examined microscopically (morphological alteration of cells); format: cell-based, mouse (female ICR); conditions: 5 μM, observed microscopically
Protocol: (§1) Activity of the compounds of the present invention for suppressing the foaming of macrophages, which triggers arterial sclerosis, was examined by an in vitro experiment using mouse peritoneal macrophages. 15-Week old female ICR mice (Nippon SLC) were subjected to bleeding by cutting off their cervicalis, and Hanks buffer (Nippon Seiyaku) was injected into their peritoneal cavities. After abdominal regions of the mice were massaged, the buffer was recovered immediately, and then the resulting buffer was centrifuged at 1,000 r.p.m. for five minutes to collect peritoneal macrophages. Then, the collected macrophages were suspended in GTI medium (Wako Pure Chemical Industries), and inoculated onto a 24-well microtiter plate. After the macrophages were cultivated at 37° C. under 5% CO2 for two hours, the culture medium was changed with Dulbecco Modified Eagle Medium (MEM, Nippon Seiyaku). The macrophages were further cultivated at 37° C. under 5% CO2 for 16 hours, and then a test compound and liposomes were added to the culture.
(§2) After cultivation was further continued at 37° C. under 5% CO2 for 16 hours, lipid fraction was extracted with chloroform and methanol. The extracted lipid fraction was dissolved in isopropyl alcohol, and the produced cholesterol ester (CE) was quantified by an enzymatic luminescence method. Yield of the cholesterol ester was calculated as a relative ratio based on yield of the control as 100% where no test compound was added. Cytotoxicity was examined microscopically by observing morphological alteration of cells. In the tables, compound numbers correspond to those of the compounds of present invention described in the examples.

[2] = test system: mouse peritoneal macrophages; test: Suppression of foaming of macrophages (cholesterol ester synthesis) in vitro; format: cell-based, mouse (female ICR); conditions: Mus musculus, Peritoneal macrophage, 5 μM, 16 hours, relative to control as 100%, smaller value = more potent suppression, read-out: Rate of CE synthesis (%)
Protocol: Activity of the compounds of the present invention for suppressing the foaming of macrophages
as §1
1) Test compound: dissolved in DMSO (Wako Pure Chemical Industries),
PC: Phosphatidylcholine (Funakoshi);
PS: Phosphatidylserine (Funakoshi);
DCP: Dicetylphosphate (Funakoshi);
CHOL: Cholesterol (Sigma)
as §2

SMILES	Cytotoxicity ([1]; Table 4)	activity at 5 µM ([2]; Table 4) [%]	Cytotoxicity ([1]; Table 3)	activity at 5 µM ([2]; Table 3) [%]
Cn1nnnc1SCCCCCSc1nc2ccccc2[nH]1 [Compound B10]	Not observed	32	–	–
Cc1cc2nc(SCCCCCSc3ccccn3)[nH]c2cc1C [Compound B33]	Not observed	18	–	–
Cc1ccc2[nH]c(SCCCCCSc3nc4ccccc4s3)nc2c1 [Compound A36]	–	–	Not observed	21
CCCc1cc(SCCCCCSc2nc3ccccc3[nH]2)n2ncnc2n1 [Compound B61]	Not observed	12	–	–
c1ccc(-n2cnnc2SCCCCCSc2nc3ccccc3[nH]2)cc1 [Compound B7]	Not observed	21	–	–
Cc1ccc2[nH]c(SCCCCSc3nc4ccccc4[nH]3)nc2c1 [Compound A18, 1-(2'-(5'-methylbenzimidazolyl)thio)-4-(2"-benzimidazolylthio)butane]	–	–	Not observed	52
c1ccc2[nH]c(CCCCCCCSc3nc4ccccc4[nH]3)nc2c1 [Compound A31, 2-(7-(2'-benzimidazolylthio)heptyl)benzimidazole]	–	–	Not observed	53
CCC(=O)Nc1ccc2[nH]c(SCCCCCSc3nc4ccccc4[nH]3)nc2c1 [Compound A8, 1-(2'-benzimidazolylthio)-5-(2"-(5"-propionylaminobenzimidazolyl)thio)pentane]	–	–	Not observed	24
Cn1c(=O)c2nc(SCCCCCSc3nc4ccccc4[nH]3)[nH]c2n(C)c1=O [Compound B13]	Not observed	26	–	–
c1ccc2[nH]c(SCCCCCSc3nnc(SCCn4ccnc4)s3)nc2c1 [Compound B21]	Not observed	11	–	–
c1ccc(-c2nnc(SCCCCCSc3nc4ccccc4[nH]3)o2)cc1 [Compound B26]	Not observed	12	–	–
[O-][n+]1ccccc1SCCCCCSc1nc2ccccc2[nH]1 [Compound B40]	Not observed	25	–	–
COc1ccc2[nH]c(SCCCCCSc3nc4cc(C)ccc4[nH]3)nc2c1 [Compound A4, 1-(2'-(5'-methoxybenzimidazolyl)thio)-5-(2"-(5"-methylbenzimidazolyl)thio)pentane]	–	–	Not observed	41
CC(=O)Nc1nnc(SCCCCCSc2nc3ccccc3[nH]2)s1 [Compound B17]	Not observed	18	–	–
CSc1nc(C)cc(SCCCCCSc2nc3ccccc3[nH]2)n1 [Compound B56]	Not observed	18	–	–
c1ccc2[nH]c(SCCCCCSC3=NCCS3)nc2c1 [Compound B15]	Not observed	11	–	–
CNS(=O)(=O)c1ccc2c(c1)nc(SCCCCCSc1nc3ccccc3[nH]1)n2C [Compound A23, 1-(2'-(1'-methyl-5'-methylsulfamoylbenzimidazolyl)thio)-5-(2"-benzimidazolylthio)pentane]	–	–	Not observed	34
O=[N+]([O-])c1ccc2[nH]c(CCCCCSc3nc4ccccc4[nH]3)nc2c1 [Compound A30]	–	–	Not observed	52
c1ccc(SCCCCCCSc2nc3ccccc3[nH]2)nc1 [Compound B31]	Not observed	27	–	–
Cc1nnc(SCCCCCSc2nc3ccccc3[nH]2)n1C [Compound B8]	Not observed	24	–	–
Clc1cc2nc(SCCCCCSc3nc4ccccc4[nH]3)[nH]c2cc1Cl [Compound A11, 1-(2'-(5',6'-dichlorobenzimidazolyl)thio)-5-(2"-benzimidazolylthio)pentane]	–	–	Not observed	9
CN(C)C(=O)c1nnc(SCCCCCSc2nc3ccccc3[nH]2)s1 [Compound B18]	Not observed	35	–	–
